Values after ≈ are worked out from the molar mass of the structure shown. Where only a bound is given, the exact number is not on record here.

One experiment relates to Bacillus subtilis. Nature of the experiment: Antibacterial activity against Bacillus subtilis MTCC 441 by broth dilution method. The experiment is classed as functional.
The test system of another experiment is Escherichia coli. The experiment is described as follows: Antibacterial activity against Escherichia coli MTCC 443 by broth dilution method. The experiment is classed as functional. In general terms: In broth dilution the organism is exposed to a series of concentrations in liquid medium.
Another experiment concerns Staphylococcus aureus. The experiment is described as follows: Antibacterial activity against Staphylococcus aureus MTCC 96 by broth dilution method. The experiment is classed as functional.
A further experiment has as its system Salmonella typhimurium. Nature of the experiment: Antibacterial activity against Salmonella enterica typhimurium MTCC 98 by broth dilution method. The experiment is classed as functional, Salmonella enterica subsp. enterica serovar Typhimurium.
Another experiment concerns Aspergillus niger. Nature of the experiment: Antifungal activity against Aspergillus niger MTCC 282 by broth dilution method. The experiment is classed as functional.
In another experiment the test system is Candida albicans. Nature of the experiment: Antifungal activity against Candida albicans MTCC 227 by broth dilution method. The experiment is classed as functional.

What is called MIC is the least concentration at which growth counts as inhibited. As for `CC1(C)S[C@@H]2[C@H](NC(=O)[C@H](N)c3ccccc3)C(=O)N2[C@H]1C(=O)O` [AMPICILLIN], the MIC against Bacillus subtilis is 250 µg/mL (≈ 715 µM); with Escherichia coli it was 100 µg/mL (≈ 286 µM); with Staphylococcus aureus it was 250 µg/mL (≈ 715 µM); against Salmonella typhimurium, 100 µg/mL (≈ 286 µM).

As for `O=c1oc2ccccc2cc1-c1ccc2c(=O)oc3ccc(Cl)cc3c2n1`, the MIC with Bacillus subtilis is 200 µg/mL (≈ 532 µM); with Aspergillus niger, greater than 1000 µg/mL; with Escherichia coli, 125 µg/mL (≈ 333 µM); in the experiment on Staphylococcus aureus it was 125 µg/mL (≈ 333 µM); against Candida albicans it was greater than 1000 µg/mL; in the experiment with Salmonella typhimurium it was 100 µg/mL (≈ 266 µM).

Turning to `COc1cccc2cc(-c3ccc4c(=O)oc5ccc(Cl)cc5c4n3)c(=O)oc12`, the MIC against Bacillus subtilis was 62.5 µg/mL (≈ 154 µM); against Aspergillus niger, 500 µg/mL (≈ 1230 µM); in the experiment on Escherichia coli, 200 µg/mL (≈ 493 µM); against Staphylococcus aureus, 200 µg/mL (≈ 493 µM); against Candida albicans it was greater than 1000 µg/mL; against Salmonella typhimurium it was 250 µg/mL (≈ 616 µM).

For the molecule `COc1cccc2cc(-c3ccc4c(=O)oc5c(C)cccc5c4n3)c(=O)oc12`, the MIC against Bacillus subtilis was 125 µg/mL (≈ 324 µM); against Aspergillus niger, greater than 1000 µg/mL; with Escherichia coli it was 250 µg/mL (≈ 649 µM); in the experiment on Staphylococcus aureus, 250 µg/mL (≈ 649 µM); against Candida albicans it was 200 µg/mL (≈ 519 µM); in the experiment with Salmonella typhimurium it was 250 µg/mL (≈ 649 µM).

As for `COc1cccc2cc(-c3ccc4c(=O)oc5ccc(C)cc5c4n3)c(=O)oc12`, the MIC against Bacillus subtilis turned out to be 62.5 µg/mL (≈ 162 µM); with Aspergillus niger it was 500 µg/mL (≈ 1300 µM); in the experiment with Escherichia coli, 250 µg/mL (≈ 649 µM); with Staphylococcus aureus, 100 µg/mL (≈ 259 µM); against Candida albicans it was 1000 µg/mL (≈ 2590 µM); against Salmonella typhimurium, 200 µg/mL (≈ 519 µM).

Take `Cc1ccc2oc(=O)c3ccc(-c4cc5c(ccc6ccccc65)oc4=O)nc3c2c1`: the MIC with Bacillus subtilis is 200 µg/mL (≈ 493 µM); in the experiment with Aspergillus niger, 500 µg/mL (≈ 1230 µM); in the experiment with Escherichia coli, 250 µg/mL (≈ 617 µM); with Staphylococcus aureus it was 62.5 µg/mL (≈ 154 µM); in the experiment with Candida albicans, 1000 µg/mL (≈ 2470 µM); in the experiment on Salmonella typhimurium, 250 µg/mL (≈ 617 µM).

Regarding `CCn1cc(C(=O)O)c(=O)c2cc(F)c(N3CCNCC3)cc21` [NORFLOXACIN], the MIC is 100 µg/mL (≈ 313 µM) in the experiment on Bacillus subtilis, 10 µg/mL (≈ 31.3 µM) with Escherichia coli, 10 µg/mL (≈ 31.3 µM) against Staphylococcus aureus and 10 µg/mL (≈ 31.3 µM) against Salmonella typhimurium.

As for `Cc1ccc2oc(=O)c3ccc(-c4cc5ccccc5oc4=O)nc3c2c1`, the MIC against Bacillus subtilis is 200 µg/mL (≈ 563 µM); with Aspergillus niger, greater than 1000 µg/mL; with Escherichia coli it was 125 µg/mL (≈ 352 µM); against Staphylococcus aureus, 250 µg/mL (≈ 704 µM); in the experiment on Candida albicans, 500 µg/mL (≈ 1410 µM); with Salmonella typhimurium, 125 µg/mL (≈ 352 µM).

In the case of `COc1cccc2cc(-c3ccc4c(=O)oc5ccccc5c4n3)c(=O)oc12`, the MIC against Bacillus subtilis turned out to be 200 µg/mL (≈ 539 µM); against Aspergillus niger, 1000 µg/mL (≈ 2690 µM); against Escherichia coli it was 200 µg/mL (≈ 539 µM); in the experiment on Staphylococcus aureus, 100 µg/mL (≈ 269 µM); with Candida albicans, 1000 µg/mL (≈ 2690 µM); in the experiment with Salmonella typhimurium it was 250 µg/mL (≈ 673 µM).

Consider `COC1=CC(=O)C[C@@H](C)[C@]12Oc1c(Cl)c(OC)cc(OC)c1C2=O` [GRISEOFULVIN], for which the MIC in the experiment with Aspergillus niger turned out to be 100 µg/mL (≈ 283 µM); against Candida albicans, 500 µg/mL (≈ 1420 µM).

Regarding NYSTATIN, the minimal inhibitory concentration (MIC) in the experiment with Aspergillus niger and against Candida albicans was 100 µg/mL in each case.

For the molecule `Cc1cccc2c1oc(=O)c1ccc(-c3cc4ccccc4oc3=O)nc12`, the MIC was 250 µg/mL (≈ 704 µM) against Bacillus subtilis; greater than 1000 µg/mL against Aspergillus niger; 200 µg/mL (≈ 563 µM) with Escherichia coli; 200 µg/mL (≈ 563 µM) against Staphylococcus aureus; 500 µg/mL (≈ 1410 µM) against Candida albicans; 250 µg/mL (≈ 704 µM) in the experiment with Salmonella typhimurium.

For `Cc1cccc2c1oc(=O)c1ccc(-c3cc4c(ccc5ccccc54)oc3=O)nc12`, the MIC in the experiment on Bacillus subtilis is 125 µg/mL (≈ 308 µM); with Aspergillus niger it was greater than 1000 µg/mL; in the experiment with Escherichia coli it was 62.5 µg/mL (≈ 154 µM); with Staphylococcus aureus, 100 µg/mL (≈ 247 µM); against Candida albicans, 1000 µg/mL (≈ 2470 µM); in the experiment with Salmonella typhimurium, 100 µg/mL (≈ 247 µM).

Consider `O=c1oc2ccc3ccccc3c2cc1-c1ccc2c(=O)oc3ccccc3c2n1`, for which the MIC against Bacillus subtilis was 125 µg/mL (≈ 319 µM); with Aspergillus niger it was greater than 1000 µg/mL; against Escherichia coli, 250 µg/mL (≈ 639 µM); against Staphylococcus aureus it was 100 µg/mL (≈ 256 µM); in the experiment on Candida albicans it was 250 µg/mL (≈ 639 µM); with Salmonella typhimurium, 200 µg/mL (≈ 511 µM).

For `O=c1oc2ccccc2cc1-c1ccc2c(=O)oc3ccccc3c2n1`, the minimum inhibitory concentration (MIC) in the experiment on Bacillus subtilis was 250 µg/mL (≈ 732 µM); in the experiment on Aspergillus niger, 500 µg/mL (≈ 1460 µM); in the experiment on Escherichia coli it was 125 µg/mL (≈ 366 µM); against Staphylococcus aureus, 200 µg/mL (≈ 586 µM); in the experiment with Candida albicans it was 1000 µg/mL (≈ 2930 µM); in the experiment on Salmonella typhimurium it was 200 µg/mL (≈ 586 µM).

As for `O=c1oc2ccc3ccccc3c2cc1-c1ccc2c(=O)oc3ccc(Cl)cc3c2n1`, the MIC in the experiment on Bacillus subtilis was 200 µg/mL (≈ 470 µM); in the experiment on Aspergillus niger it was 1000 µg/mL (≈ 2350 µM); against Escherichia coli, 62.5 µg/mL (≈ 147 µM); against Staphylococcus aureus, 62.5 µg/mL (≈ 147 µM); against Candida albicans, 500 µg/mL (≈ 1170 µM); against Salmonella typhimurium, 100 µg/mL (≈ 235 µM).

These data come from ChEMBL document CHEMBL3046207, “Synthesis of a new series of 2-(2-oxo-2H-chromen-3-yl)-5H-chromeno[4,3-b]pyridin-5-ones by two facile methods and evaluation of their antimicrobial activity” (2013).
